Experimental data: BindingDB's records for patent US11903936 (University of Texas, 2024)

Target: T1, Dihydroorotate dehydrogenase (quinone), mitochondrial (Plasmodium falciparum (isolate 3D7), UniProt Q08210)
T1 sequence (Q08210 whole entry): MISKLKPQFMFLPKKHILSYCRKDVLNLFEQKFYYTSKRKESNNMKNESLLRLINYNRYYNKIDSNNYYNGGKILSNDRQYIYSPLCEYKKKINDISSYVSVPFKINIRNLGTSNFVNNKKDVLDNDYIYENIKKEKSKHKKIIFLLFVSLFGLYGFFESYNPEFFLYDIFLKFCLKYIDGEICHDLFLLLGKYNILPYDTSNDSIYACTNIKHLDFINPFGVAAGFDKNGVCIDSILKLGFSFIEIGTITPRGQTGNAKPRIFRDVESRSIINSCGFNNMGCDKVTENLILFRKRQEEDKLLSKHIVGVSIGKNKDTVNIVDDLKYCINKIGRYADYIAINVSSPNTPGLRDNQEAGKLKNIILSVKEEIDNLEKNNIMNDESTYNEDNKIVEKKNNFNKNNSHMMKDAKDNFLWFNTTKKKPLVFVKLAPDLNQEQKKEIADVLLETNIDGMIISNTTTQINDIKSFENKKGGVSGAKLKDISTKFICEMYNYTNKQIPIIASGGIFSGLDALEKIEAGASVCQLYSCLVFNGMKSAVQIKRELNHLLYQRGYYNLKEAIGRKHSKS
Test: P. falciparum growth and inhibition assays

EC50: 39 nM
Structure (SMILES): Cc1c(Cc2ccc(C(F)(F)F)c(F)c2)c[nH]c1C(=O)NC(C)c1nc[nH]n1 (stereo unspecified) [US11903936, Compound 5]
